63 molecules from article PMC12040169 (PLOS Biology, 2025) can be followed below.

A short description of this data set: in vitro. Particulars: human, hela cells, % viability.
`COC(=O)CCCC(=O)n1ccn(CCc2cccs2)c1=O` [CBK106612]: the viability at 28.5 h, 10 µM came out at 92%.
With `O=c1n(C(c2ccccc2)c2ccccc2)ccn1S(=O)(=O)c1cccc(Cl)c1` [CBK106615] the figure was 91.5%; with `O=C(CCC1CCCC1)n1ccn(C(c2ccccc2)c2ccccc2)c1=O` [CBK106619], 103%; with `COc1ccc(S(=O)(=O)n2ccn(C(c3ccccc3)c3ccccc3)c2=O)cc1OC` [CBK106621], 89.1%.
With `O=C(CCC1CCCC1)n1ccn(-c2ccc3c(c2)OCO3)c1=O` [CBK106631] the figure was 101%; with `CCCc1ccc(S(=O)(=O)n2ccn(-c3ccc4c(c3)OCO4)c2=O)cc1` [CBK106634], 94.6%; with `CS(=O)(=O)c1ccccc1C(=O)n1ccn(-c2ccc(Oc3ccccc3)cc2)c1=O` [CBK106647], 80.8%.
As to `c1ccc(-c2nccnc2OCCc2cccs2)cc1` [CBK106673], the viability at 28.5 h, 10 µM was determined as 103%.
`CC(=O)Nc1ccc(CCOc2nccnc2-c2ccccc2)cc1` [CBK106683]: the viability at 28.5 h, 10 µM stood at 96.3%.
With `c1ccc(COc2nccnc2-c2ccccc2)cc1` [CBK106686] the figure was 92.2%; with `O=C1CCC(=O)N1CCOc1nccnc1-c1ccc2c(c1)OCO2` [CBK106698], 92.3%; with `c1cnc(-c2ccc3c(c2)OCO3)c(OC2CCCCC2)n1` [CBK106706], 92.4%.
As for `CC(C)CCOc1nccnc1-c1ccc2c(c1)OCO2` [CBK106711], the figure is 104%.
In the case of `COc1ncc(-c2nccnc2OC)c(OC)n1` [CBK106744], the viability at 28.5 h, 10 µM is 94.2%.
As to `COc1ncc(-c2nccnc2OCCn2cnc3c2c(=O)n(C)c(=O)n3C)c(OC)n1` [CBK106746], the viability at 28.5 h, 10 µM was 87.3%.
Regarding `COc1ncc(-c2nccnc2Oc2cccc(NC(C)=O)c2)c(OC)n1` [CBK106747], the viability at 28.5 h, 10 µM came to 89.6%.
With `COc1ncc(-c2nccnc2OCCOc2ccccc2)c(OC)n1` [CBK106752], the viability at 28.5 h, 10 µM is 91.1%.
With `COc1ncc(-c2nccnc2OCC2COc3ccccc3O2)c(OC)n1` (stereo not drawn) [CBK106754], the viability at 28.5 h, 10 µM was 102%.
As for `CCCCOc1nccnc1-c1cnc(OC)nc1OC` [CBK106756], the figure is 98.8%.
Regarding `COc1cccc(Oc2nccnc2-c2ccsc2)c1` [CBK106762], the viability at 28.5 h, 10 µM turned out to be 92.1%.
On to `c1cnc(-c2ccsc2)c(OC2CCCCC2)n1` [CBK106764], for which the viability at 28.5 h, 10 µM came out at 97.6%.
For the molecule `O=C1NCCN1CCOc1nccnc1-c1ccsc1` [CBK106766], the viability at 28.5 h, 10 µM came to 93.4%.
For the molecule `c1csc(COc2nccnc2-c2ccsc2)c1` [CBK106770], the viability at 28.5 h, 10 µM amounted to 100%.
As for `c1ccn(CCOc2nccnc2-c2ccsc2)c1` [CBK106772], the figure is 94.4%; as for `COc1ccc(CCOc2nccnc2-c2ccsc2)cc1` [CBK106775], 72%.
For the molecule `COc1nccnc1-c1cc2ccccc2s1` [CBK106781], the viability at 28.5 h, 10 µM came out at 87.7%.
With `c1csc(COc2nccnc2-c2cc3ccccc3s2)c1` [CBK106786] the figure was 99.5%; with `CSc1ccc(-c2nccnc2OC(c2ccccc2)c2ccccc2)cc1` [CBK106797], 90.2%.
Turning to `CSc1ccc(-c2nccnc2OCCC(C)C)cc1` [CBK106802], the viability at 28.5 h, 10 µM amounted to 113%.
Regarding `COC(=O)COc1nccnc1-c1ccc(SC)cc1` [CBK106806], the viability at 28.5 h, 10 µM was found to be 107%.
With `COc1ccccc1-c1nccnc1OCCc1c[nH]c2ccccc12` [CBK106807], the viability at 28.5 h, 10 µM stood at 87.7%.
For the molecule `COc1ccccc1-c1nccnc1OC(c1ccccc1)c1ccccc1` [CBK106813], the viability at 28.5 h, 10 µM turned out to be 93.8%.
Turning to `COc1ccccc1-c1nccnc1OCCc1ccc(NC(C)=O)cc1` [CBK106815], the viability at 28.5 h, 10 µM is 115%.
As for `FC(F)(F)Oc1ccc(-c2nccnc2OCC2COc3ccccc3O2)cc1` (stereo not drawn) [CBK106845], the figure is 97.7%; as for `COC(=O)COc1nccnc1-c1ccc(OC(F)(F)F)cc1` [CBK106849], 90.4%; as for `COc1nccnc1-c1ccc(C)c(C)c1` [CBK106853], 88.7%.
Take `Cc1ccc(-c2nccnc2OCc2ccccc2)cc1C` [CBK106861]: the viability at 28.5 h, 10 µM came to 90.8%.
With `Cc1ccc(-c2nccnc2OCc2ccco2)cc1C` [CBK106863] the figure was 90.2%.
Take `Cc1ccc(-c2nccnc2OCCOc2ccccc2)cc1C` [CBK106865]: the viability at 28.5 h, 10 µM was found to be 90.8%.
Take `CCCCOc1nccnc1-c1ccc(C)c(C)c1` [CBK106870]: the viability at 28.5 h, 10 µM worked out at 95.1%.
Consider `COC(=O)COc1nccnc1-c1ccc(C)c(C)c1` [CBK106871], for which the viability at 28.5 h, 10 µM amounted to 83.3%.
Regarding `C(=C\c1nccnc1OCCc1cccs1)/c1ccccc1` [CBK106873], the viability at 28.5 h, 10 µM is 101%.
Regarding `COc1nccnc1/C=C/c1ccccc1` [CBK106876], the viability at 28.5 h, 10 µM came to 115%.
For `COc1cccc(Oc2nccnc2/C=C/c2ccccc2)c1` [CBK106877], the viability at 28.5 h, 10 µM came to 107%.
Consider `C(=C\c1nccnc1OC(c1ccccc1)c1ccccc1)/c1ccccc1` [CBK106878], for which the viability at 28.5 h, 10 µM was determined as 99.1%.
Regarding `C(=C\c1nccnc1OCCOc1ccccc1)/c1ccccc1` [CBK106885], the viability at 28.5 h, 10 µM came out at 91.6%.
With `CC(C)N(CCOc1nccnc1/C=C/c1ccccc1)C(C)C` [CBK106889] the figure was 96%; with `CCCC/C=C\c1nccnc1OCCn1cccc1` [CBK106891], 104%.
On to `O=C1CCCN1CCOc1nccnc1-c1ccc(F)cc1` [CBK106895], for which the viability at 28.5 h, 10 µM stood at 98.7%.
On to `Fc1ccc(-c2nccnc2OCc2ccc3c(c2)OCO3)cc1` [CBK106896], for which the viability at 28.5 h, 10 µM is 93.3%.
For the molecule `O=C1NCCN1CCOc1nccnc1-c1ccc(F)cc1` [CBK106898], the viability at 28.5 h, 10 µM was determined as 97.8%.
With `COCc1cccc(-c2nccnc2OCc2ccccn2)c1` [CBK106953] the figure was 96%.
On to `COCc1cccc(-c2nccnc2OCC(=O)OC)c1` [CBK106976], for which the viability at 28.5 h, 10 µM was 98.7%.
With `Cc1ccc(-c2nccnc2OCc2ccccn2)c(C)c1` [CBK106979] the figure was 90.7%; with `Cc1ccc(-c2nccnc2OC2CCCCC2)c(C)c1` [CBK106983], 94%.
As to `CC(=O)Nc1ccc(CCOc2nccnc2-c2ccc(C)cc2C)cc1` [CBK106985], the viability at 28.5 h, 10 µM came to 96.7%.
`Cc1ccc(-c2nccnc2OCCOc2ccccc2)c(C)c1` [CBK106991]: the viability at 28.5 h, 10 µM amounted to 86.1%.
As to `O=C1CCCN1CCOc1nccnc1-c1ccccc1Cl` [CBK106999], the viability at 28.5 h, 10 µM was 100%.
For `COc1nccnc1-c1ccccc1Cl` [CBK107000], the viability at 28.5 h, 10 µM stood at 100%.
With `Clc1ccccc1-c1nccnc1OC(c1ccccc1)c1ccccc1` [CBK107002] the figure was 92.9%; with `Clc1ccccc1-c1nccnc1OCCOc1ccccc1` [CBK107011], 95.9%.
Consider `COc1ccc(-c2nccnc2OC)c(OC)c1` [CBK107039], for which the viability at 28.5 h, 10 µM was 114%.
In the case of `c1ccc(COc2nccnc2-c2cccs2)nc1` [CBK107055], the viability at 28.5 h, 10 µM is 107%.
